# Laboratory results from article PMC8252765, “Human Oxygenase Variants Employing a Single Protein Fe^II Ligand Are Catalytically Active” (Angewandte Chemie (International Ed. in English), 2021).
# Positions count from the first letter of the chain named. Where two headings read alike, the source gives them in different places.
# Experiments:
# H679A His6-AspH315-758 [1] = molecular target: T1, H679A His6-AspH315-758 (Homo sapiens, UniProt Q12797, H679A); test: Steady-state kinetics of H679A AspH by SPE-MS; assay type: biochemical; settings: H679A AspH 0.2 μM, parameter for the varied (co)substrate (label), 25 mM HEPES pH 7.5, n=3
# T1 construct: containing H679A or H725A His6-AspH315-758 variant (0.2 μM); made in house; host or cells: E. coli BL21 (DE3), pET-28a(+)
# T1 sequence (Q12797 315-758 H679A): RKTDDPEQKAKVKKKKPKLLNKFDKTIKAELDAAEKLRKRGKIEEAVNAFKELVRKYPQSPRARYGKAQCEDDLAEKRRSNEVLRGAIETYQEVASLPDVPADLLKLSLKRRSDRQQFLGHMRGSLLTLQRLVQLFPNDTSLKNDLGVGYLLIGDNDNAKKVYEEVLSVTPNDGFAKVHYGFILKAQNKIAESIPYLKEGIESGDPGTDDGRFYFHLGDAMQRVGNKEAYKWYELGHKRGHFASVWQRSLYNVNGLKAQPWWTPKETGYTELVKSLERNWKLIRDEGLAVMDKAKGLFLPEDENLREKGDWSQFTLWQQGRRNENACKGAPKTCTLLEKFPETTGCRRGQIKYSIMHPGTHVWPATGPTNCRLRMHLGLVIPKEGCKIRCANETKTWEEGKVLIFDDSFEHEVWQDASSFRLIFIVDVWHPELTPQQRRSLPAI
# Experimental: Supporting Figure S5. […] Turnover […]
# numbers (kapp or k ) and Michaelis constants (Kapp or K ) of the H679A AspH variant were determined in […]
# MS (SPE-MS parameters are given i n Section 2 of the Supporting Information ). Conditions: 0.2 μM H679A His6- […]
# HEPES (pH 7.5, 20° C). Measurement times were normalized to the first sample injection analysed after the […]
# Data are shown as the mean average of three independent runs (n = 3; mean ± standard deviation, SD).
# Turnover numbers (kapp or k ) were calculated from the maximum velocities (vapp or v ) values obtained, […]
# assuming ideal active site availability as supported by a reported active site titration of wt AspH.[4] […]
# substrate in the absence of LAA for the shown Fe(II) concentrations (conditions: 0.2 μM H679A His6-AspH315- […]
# substrate in the presence of LAA for the shown Fe(II) concentrations (conditions: 0.2 μM H679A His6-AspH315- […]
# H725A His6-AspH315-758 [2] = molecular target: T2, H725A His6-AspH315-758 (Homo sapiens, UniProt Q12797, H725A); test: Steady-state kinetics of H725A AspH by SPE-MS; assay type: biochemical; settings: H725A AspH 0.2 μM, parameter for the varied (co)substrate (label), 25 mM HEPES pH 7.5, n=3
# T2 construct: containing H679A or H725A His6-AspH315-758 variant (0.2 μM); made in house; host or cells: E. coli BL21 (DE3), pET-28a(+)
# T2 sequence (Q12797 315-758 H725A): T1 sequence (Q12797 315-758 H679A) with A365H, H411A
# Experimental: page 11: Supporting Figure S6. Kinetic parameters for […] AspH (continues on the following page). Turnover numbers (kapp or k ) and Michaelis constants (Kapp or K ) of the […] AspH-catalysed hydroxylation of […] peptide by SPE- MS (SPE-MS parameters are given in Section 2 of the Supporting Information). […] HEPES (pH 7.5, 20° C). […] Data are shown as the mean average of three independent runs (n = 3; mean ± standard deviation, SD). Turnover numbers (kapp or k ) were calculated from the maximum velocities (vapp or v ) values obtained, cat cat max max assuming ideal active site availability as supported by a reported active site titration of wt AspH.[4] (a) Time course of the […] AspH for Fe(II) in the absence of LAA; (c) Kapp of […] AspH for Fe(II) in the absence m of LAA. (d) Time course of the […] AspH for Fe(II) in the presence of LAA; (f) Kapp of […] AspH for Fe(II) in the m presence of LAA. […] AspH variant-catalysed hydroxylation reaction of […] (k) hydroxylation rates used to determine kinetic parameters of […] AspH for […]. […] AspH for […] peptide substrate. […]
# wt His6-AspH315-758 = test system: T3, wt His6-AspH315-758; test: Steady-state kinetics of wt AspH by SPE-MS; assay type: biochemical, human; settings: wt AspH 0.1 μM, parameter for the varied (co)substrate (label), 25 mM HEPES pH 7.5, 50 mM NaCl, n=3
# T3 construct: Conditions: 0.1 μM wt His6-AspH315-758 using; His6 (N); made in house
# Experimental: Supporting Figure S4. Kinetic parameters for wt AspH (continues on the following page). Turnover numbers […]
# ammonium iron(II) sulfate hexahydrate (FAS, (NH 4)2Fe(SO 4)2·6H2O), both in the presence and absence of L - ascorbic acid (LAA ) monitoring the AspH-catalysed hydroxylation of the hFX-EGFD186-124-4Ser peptide (Supporting Figure S2a) by SPE-MS (SPE-MS parameters are given in Section 2 of the Supporting Information).
# Conditions: 0.1 μM wt His6-AspH315-758 using
# C; note, to increase enzyme activity, 50 mM NaCl was added to the reaction buffer). Measurement times were normalized to the first sample injection analysed after the addition of the Enzyme Mixture to the Substrate Mixture […]
# Data are shown as the mean average of three independent runs (n = 3; mean ± standard deviation, SD). Turnover numbers (kapp) were calculated from the […]
# maximum velocities (vapp ) values obtained, assuming ideal active site availability as supported by a reported […]
# active site titration of wt AspH.[4]
# (a) Time course of the wt AspH-catalysed hydroxylation reaction of the hFX-EGFD186-124-4Ser peptide substrate […]
# and 4.0 μM hFX-EGFD1 86-124-4Ser); (b) hydroxylation rates used to determine kinetic parameters of wt AspH for Fe(II) in the absence of LAA; ( c) Kapp of wt AspH for Fe(II) in the absence of LAA.
# (d) Time course of the wt AspH-catalysed hydroxylation reaction of the hFX-EGFD186-124-4Ser peptide substrate in the presence of LAA for the shown Fe(II) concentrations (conditions: 0.1 μM wt His6-AspH315-758, 100 μM […]
# parameters of wt AspH for Fe(II) in the presence of LAA; (f) Kapp of wt AspH for Fe(II) in the presence of LAA. […]
# (g) Time course of the wt AspH-catalysed hydroxylation reaction of the hFX-EGFD186-124-4Ser peptide substrate […]
# (1 picture or pasted object on this page, not shown here)
# wt AspH = settings: cited from earlier work
# H725A His6-AspH315-758 [3] = molecular target: T2, H725A His6-AspH315-758; test: H725A AspH variant SPE-MS inhibition assay; assay type: biochemical
# H679A His6-AspH315-758 [4] = molecular target: T1, H679A His6-AspH315-758; test: H679A AspH variant SPE-MS inhibition assay; assay type: biochemical
# [5] = test system: γ‐butyrobetaine hydroxylase; parameters: method as in PMID 22730246; settings: reported value; cited from earlier work
# [6] = 0.1 μM H725A AspH, 4.0 μM hFX-EGFD1_86-124-4Ser, 215 μM 2OG, 10 μM Fe^II, SPE-MS, n=2, read-out: IC50
# [7] = 0.1 μM H679A AspH, 4.0 μM hFX-EGFD1_86-124-4Ser, 110 μM 2OG, 4 μM Fe^II, SPE-MS, n=2, read-out: IC50
compound,measurement,setting,value
ammonium iron(II) sulfate hexahydrate [Fe^II],Kmapp,H679A His6-AspH315-758 [1]; with LAA (400 μM),2.7 ± 0.5 µM
same,kcatapp,H679A His6-AspH315-758 [1]; with LAA (400 μM),0.19 ± 0.01 s⁻¹
same,Kmapp,H679A His6-AspH315-758 [1]; without LAA,4.4 ± 0.8 µM
same,kcatapp,H679A His6-AspH315-758 [1]; without LAA,0.18 ± 0.01 s⁻¹
same,Kmapp,H725A His6-AspH315-758 [2]; with LAA (400 μM),8.1 ± 1.8 µM
same,kcatapp,H725A His6-AspH315-758 [2]; with LAA (400 μM),0.10 ± 0.01 s⁻¹
same,Kmapp,H725A His6-AspH315-758 [2]; without LAA,12.3 ± 3.0 µM
same,kcatapp,H725A His6-AspH315-758 [2]; without LAA,0.09 ± 0.01 s⁻¹
same,Kmapp,wt His6-AspH315-758; with LAA (100 μM),4.3 ± 1.6 µM
same,kcatapp,wt His6-AspH315-758; with LAA (100 μM),0.27 ± 0.04 s⁻¹
same,Kmapp,wt His6-AspH315-758; without LAA,7.2 ± 2.6 µM
same,kcatapp,"wt His6-AspH315-758; without LAA, hFX-EGFD1 peptide hydroxylation",0.24 ± 0.04 s⁻¹
CC(=O)[O-].CC(=O)[O-].[Zn+2] [Zn(OAc)2],IC50,"wt AspH; wt AspH, 2 μM Fe^II, 3 μM 2OG",50 ± 10 nM
same,IC50,H725A His6-AspH315-758 [3]; [6],160 ± 10 nM
same,IC50,H679A His6-AspH315-758 [4]; [7],160 ± 10 nM
"O=C(O)CNC(=O)C(=O)O [N‐oxalyl‐glycine (NOG), N‐oxalylglycine]",IC50,wt AspH,1100 ± 300 nM
same,IC50,"H725A His6-AspH315-758 [3]; 0.1 μM H725A AspH, 4.0 μM hFX-EGFD1_86-124-4Ser, 215 μM 2OG, 10 μM Fe^II, SPE-MS, n=2",inactive
same,IC50,"H725A His6-AspH315-758 [3]; 0.1 μM H725A AspH, 4.0 μM hFX-EGFD1_86-124-4Ser, 215 μM 2OG, 10 μM Fe^II, SPE-MS, n=2, listed as NOG",does not apparently inhibit
same,IC50,"H679A His6-AspH315-758 [4]; 0.1 μM H679A AspH, 4.0 μM hFX-EGFD1_86-124-4Ser, 110 μM 2OG, 4 μM Fe^II, SPE-MS, n=2",inactive
same,IC50,"H679A His6-AspH315-758 [4]; 0.1 μM H679A AspH, 4.0 μM hFX-EGFD1_86-124-4Ser, 110 μM 2OG, 4 μM Fe^II, SPE-MS, n=2, listed as NOG",does not apparently inhibit
O=S(=O)([O-])[O-].[Ni+2] [NiSO4],IC50,wt AspH,170 ± 80 nM
same,IC50,H725A His6-AspH315-758 [3]; read-out: IC50,1800 ± 400 nM
same,IC50,H679A His6-AspH315-758 [4]; read-out: IC50,2700 ± 400 nM
"O=C(O)c1ccnc(C(=O)O)c1 [pyridine‐2,4‐dicarboxylic acid]",IC50,"wt AspH; wt AspH, 2 μM Fe^II, 3 μM 2OG",30 ± 10 nM
same,IC50,"wt AspH; wt AspH, at 3 μM 2OG",~30 nM
same,IC50,"wt AspH; wt AspH, at 200 μM 2OG",~100 nM
same,IC50,H725A His6-AspH315-758 [3]; read-out: IC50,11200 ± 1400 nM
same,IC50,H679A His6-AspH315-758 [4]; read-out: IC50,130 ± 10 nM
[Cl-].[Cl-].[Co+2] [CoCl2],IC50,wt AspH,400 ± 200 nM
same,IC50,"H725A His6-AspH315-758 [3]; n=2, read-out: IC50",3000 ± 500 nM
same,IC50,"H679A His6-AspH315-758 [4]; n=2, read-out: IC50",1500 ± 200 nM
"O=C(O)CCC(=O)C(=O)O [2OG, 2‐oxoglutarate]",Kmapp,H679A His6-AspH315-758 [1]; with LAA (400 μM),109 ± 20 µM
same,kcatapp,H679A His6-AspH315-758 [1]; with LAA (400 μM),0.18 ± 0.01 s⁻¹
same,Kmapp,H725A His6-AspH315-758 [2]; with LAA (400 μM),211 ± 65 µM
same,kcatapp,H725A His6-AspH315-758 [2]; with LAA (400 μM),0.08 ± 0.01 s⁻¹
same,2OG Kmapp‐value,[5],150 to 470 µM
[Cl][Mn][Cl] [MnCl2],IC50,"wt AspH; wt AspH, 2 μM Fe^II, 3 μM 2OG",5100 ± 1100 nM
same,IC50,H725A His6-AspH315-758 [3]; [6],> 40000 nM
same,IC50,H679A His6-AspH315-758 [4]; [7],23100 ± 8600 nM
